Experimental data from PubChem BioAssay (NCI).
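Briefly, cells in 96-well plates were exposed to five compound concentrations for 48 h, and endpoints were estimated by linear interpolation. The concentration for 50% growth inhibition is given as GI50. TGI: total growth inhibition.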

Tests used:
Assay in all cases: growth of human tumour cells (NCI), 48 h
UACC-62 melanoma = system: UACC-62 melanoma
T-47D breast = system: T-47D breast
COLO 205 colon = system: COLO 205 colon
BT-549 breast = system: BT-549 breast
MDA-MB-231 breast = system: MDA-MB-231 breast
CAKI-1 renal = system: CAKI-1 renal
PC-3 prostate = system: PC-3 prostate
SK-MEL-28 melanoma = system: SK-MEL-28 melanoma
K-562 leukemia = system: K-562 leukemia
ACHN renal = system: ACHN renal

Structure (SMILES) | TGI (UACC-62 melanoma) [µM] | TGI (T-47D breast) [µM] | TGI (COLO 205 colon) [µM] | TGI (BT-549 breast) [µM] | TGI (MDA-MB-231 breast) [µM] | TGI (CAKI-1 renal) [µM] | TGI (PC-3 prostate) [µM] | TGI (SK-MEL-28 melanoma) [µM] | TGI (K-562 leukemia) [µM] | TGI (ACHN renal) [µM] | GI50 (UACC-62 melanoma) [µM] | GI50 (COLO 205 colon) [µM] | GI50 (BT-549 breast) [µM] | GI50 (MDA-MB-231 breast) [µM] | GI50 (CAKI-1 renal) [µM] | GI50 (PC-3 prostate) [µM] | GI50 (SK-MEL-28 melanoma) [µM] | GI50 (K-562 leukemia) [µM] | GI50 (ACHN renal) [µM] | GI50 (T-47D breast) [µM]
O=C(O)c1ccc(N/C(=C(/C(Cl)=C(Cl)Cl)[N+](=O)[O-])n2nnc3ccccc32)cc1 | > 100 | > 100 | > 100 | > 100 | > 100 | > 100 | > 100 | > 100 | > 100 | > 100 | – | – | – | – | – | – | – | – | – | –
c1cc2c(cc1C1=NCCN1)c1cc(C3=NCCN3)ccc1n2CC1CCCCC1 | – | 84.7 | 20.4 | 41.9 | > 100 | > 100 | > 100 | 26.7 | > 100 | > 100 | – | – | – | – | – | – | – | – | – | –
O=C(N/N=C\c1ccc([N+](=O)[O-])s1)c1ccncc1 | 15.7 | 48.4 | 9.22 | 27.2 | > 89.1 | 49.2 | > 76.8 | > 64.9 | – | > 60.8 | – | – | – | – | – | – | – | – | – | –
NN/C(=N\S(=O)(=O)c1ccc(S(=O)(=O)c2ccccc2)s1)Nc1ccc(Cl)cc1 | 33.5 | 59.3 | 46.2 | > 100 | > 100 | > 100 | > 100 | > 100 | > 100 | > 100 | – | – | – | – | – | – | – | – | – | –
CCOC(=O)CCC(NC(=O)c1ccc(Nc2nc3ccccc3nc2C(=O)OCC)cc1)C(=O)OCC (stereo unspecified) | 9.15 | 7.06 | > 100 | 25.7 | > 23.8 | 14.4 | > 100 | > 100 | > 100 | 11.5 | – | – | – | – | – | – | – | – | – | –
O=[N+]([O-])C(C=C(n1nnc2ccccc21)n1nnc2ccccc21)=C(n1nnc2ccccc21)n1nnc2ccccc21 | > 100 | > 100 | > 100 | > 100 | > 100 | > 100 | > 100 | – | > 100 | > 100 | – | – | – | – | – | – | – | – | – | –
O=C1N(c2ccccc2)C(=S)/C(=C/c2ccc(Cl)cc2)N1c1ccc(Cl)cc1 | 53.3 | > 100 | > 100 | > 100 | 90.5 | > 100 | > 100 | > 100 | > 100 | 49.1 | – | – | – | – | – | – | – | – | – | –
C=C(C)[C@@H]1CC[C@]2(C(=O)NC(C)=O)CC[C@]3(C)[C@H](CC[C@@H]4[C@@]5(C)CCCNC(C)(C)[C@@H]5CC[C@]43C)[C@@H]12 | 3.11 | – | 2.98 | 3.28 | 3.29 | 3.1 | 3.5 | 3.04 | 3.18 | 3.15 | 1.73 | 1.19 | 1.68 | 1.82 | 1.64 | 1.59 | 1.66 | 1.12 | 1.77 | –
Cc1cc2ccc(N)nc2[nH]c1=O | > 100 | > 100 | > 100 | > 100 | > 100 | > 100 | > 100 | – | – | > 100 | – | – | – | – | – | – | – | – | – | –
C=CCNC(=S)/N=C/C(C(=O)Nc1ccccc1C)=C(\C)O | > 100 | > 100 | > 100 | > 100 | > 100 | > 100 | > 100 | – | > 100 | > 100 | – | – | – | – | – | – | – | – | – | –
CCOC(=O)c1cc(Br)c(-c2cc(C)co2)[nH]1 | > 100 | > 100 | > 100 | > 100 | > 100 | > 100 | > 100 | > 100 | > 100 | – | – | – | – | – | – | – | – | – | – | –
C=C(C)[C@@H]1CC[C@]2(CO)CC[C@]3(C)[C@H](CC[C@@H]4[C@@]5(C)CC[C@H](NCO)C(C)(C)[C@@H]5CC[C@]43C)[C@@H]12 | 1.63 | – | 1.82 | 1.53 | 1.75 | 1.59 | 1.85 | 1.61 | 3.59 | 1.65 | 0.918 | 0.898 | 0.792 | 0.995 | 0.882 | 0.85 | 0.894 | 0.974 | 0.943 | –
CC(C)=NOC(=O)Nc1cccc2c1OCO2 | > 100 | > 100 | > 100 | – | > 100 | > 100 | > 100 | > 100 | – | > 100 | – | – | – | – | – | – | – | – | – | –
CCN(CC)CCO[Si](OCCN(CC)CC)(OCCN(CC)CC)OCCN(CC)CC | > 100 | – | > 100 | – | – | > 100 | – | > 100 | – | – | – | – | – | – | – | – | – | – | – | –
CCNC(=S)N/N=C(\C)c1cccc(C)n1 | 41.3 | > 100 | > 100 | > 100 | > 100 | – | > 100 | > 100 | > 100 | > 100 | – | – | – | – | – | – | – | – | – | –
FC(F)(F)c1ccc2nc(Sc3ccc4ccccc4c3)cnc2c1 | > 100 | > 100 | > 100 | > 100 | > 100 | > 100 | – | > 100 | > 100 | > 100 | – | – | – | – | – | – | – | – | – | –
COc1ccc(-c2n/c(=C\c3c(O)[nH]c4ccccc34)cc3c2=Nc2ccccc2-3)cc1 | 2.58 | 9.43 | – | 2.96 | 2.52 | 36.7 | 9.31 | 2.32 | 3.63 | 21.3 | 1.31 | – | 1.45 | 1.13 | 14.5 | 1.3 | 1.07 | 1.45 | 6.81 | 2.22
O=c1[nH]c2ccc([N+](=O)[O-])cc2nc1/C=C(\O)c1ccccc1 | > 100 | > 100 | > 100 | > 100 | 15.3 | 62 | > 100 | – | > 100 | > 100 | – | – | – | – | – | – | – | – | – | –
